The text below walks through data of PubChem BioAssay AID1259407 (Chemical Carcinogenesis Research Information System (CCRIS), 2018).

In this series the test system is CCRIS mutagenicity, Ames/micronucleus/aberration tests. Put plainly: CCRIS mutagenicity studies. An excerpt: The CCRIS database contains chemical records with carcinogenicity, mutagenicity, tumor promotion, and tumor inhibition test results. It was developed by the National Cancer Institute (NCI). Data are derived from studies cited in primary journals, current awareness tools, NCI reports, and other sources. Test results have been reviewed by experts in carcinogenesis and mutagenesis.
CCRIS provides historical information from the years 1985 - 2011. It is no longer updated.
This is an archive assay for CCRIS mutagenicity studies.

Setting [1] is: Test System: AMES SALMONELLA TYPHIMURIUM, Strain/Indicator: TA98, Metabolic Activation: NONE, Method: STANDARD PLATE.
Where [2] appears, read: Test System: AMES SALMONELLA TYPHIMURIUM, Strain/Indicator: TA98, Metabolic Activation: RAT, LIVER, S-9, AROCLOR 1254, Method: STANDARD PLATE.
The mark [3] stands for this setting: Test System: AMES SALMONELLA TYPHIMURIUM, Strain/Indicator: TA100, Metabolic Activation: NONE, Method: STANDARD PLATE.

The source made the active and inactive calls. The rule behind the calls is not given here.

As for `Nc1cc(S(=O)(=O)[O-])cc2c1C(=O)/C(=N\Nc1ccc(-c3ccc(N/N=C4\C(=O)c5c(N)cc(S(=O)(=O)[O-])cc5C=C4S(=O)(=O)[O-])c(O)c3)cc1O)C(S(=O)(=O)[O-])=C2.[Cu].[Cu].[Na+].[Na+].[Na+].[Na+]`, the mutagenic call (Test System: AMES SALMONELLA TYPHIMURIUM, Strain/Indicator: TA98, Metabolic Activation: HAMSTER, LIVER, S-9, AROCLOR 1254 (10%), Method: PREINCUBATION) is “inactive; negative”; the mutagenic call (Test System: AMES SALMONELLA TYPHIMURIUM, Strain/Indicator: TA98, Metabolic Activation: NONE, Method: PREINCUBATION) is “inactive; negative”; the mutagenic call (Test System: AMES SALMONELLA TYPHIMURIUM, Strain/Indicator: TA98, Metabolic Activation: RAT, LIVER, S-9, AROCLOR 1254 (10%), Method: PREINCUBATION) is “inactive; negative”; the mutagenic call (Test System: AMES SALMONELLA TYPHIMURIUM, Strain/Indicator: TA100, Metabolic Activation: HAMSTER, LIVER, S-9, AROCLOR 1254 (10%), Method: PREINCUBATION) is “inactive; negative”; the mutagenic call (Test System: AMES SALMONELLA TYPHIMURIUM, Strain/Indicator: TA100, Metabolic Activation: NONE, Method: PREINCUBATION) was “inactive; negative”; the mutagenic call (Test System: AMES SALMONELLA TYPHIMURIUM, Strain/Indicator: TA100, Metabolic Activation: RAT, LIVER, S-9, AROCLOR 1254 (10%), Method: PREINCUBATION) was “inactive; negative”. Further, the mutagenic call was “inactive; negative” (Test System: AMES SALMONELLA TYPHIMURIUM, Strain/Indicator: TA1535, Metabolic Activation: HAMSTER, LIVER, S-9, AROCLOR 1254 (10%), Method: PREINCUBATION); “inactive; negative” (Test System: AMES SALMONELLA TYPHIMURIUM, Strain/Indicator: TA1535, Metabolic Activation: NONE, Method: PREINCUBATION); “inactive; negative” (Test System: AMES SALMONELLA TYPHIMURIUM, Strain/Indicator: TA1535, Metabolic Activation: RAT, LIVER, S-9, AROCLOR 1254 (10%), Method: PREINCUBATION); “inactive; negative” (Test System: AMES SALMONELLA TYPHIMURIUM, Strain/Indicator: TA1537, Metabolic Activation: HAMSTER, LIVER, S-9, AROCLOR 1254 (10%), Method: PREINCUBATION); “inactive; negative” (Test System: AMES SALMONELLA TYPHIMURIUM, Strain/Indicator: TA1537, Metabolic Activation: NONE, Method: PREINCUBATION); “inactive; negative” (Test System: AMES SALMONELLA TYPHIMURIUM, Strain/Indicator: TA1537, Metabolic Activation: RAT, LIVER, S-9, AROCLOR 1254 (10%), Method: PREINCUBATION). Further, the mutagenic call (Test System: AMES SALMONELLA TYPHIMURIUM, Strain/Indicator: TA1538, Metabolic Activation: RAT, LIVER, S-9, AROCLOR 1254, Method: STANDARD PLATE) is “inactive; negative”.
`CC(C)(C)NCC(O)c1ccc(O)c(NC(N)=O)c1` (centres undefined): the mutagenic call under setting [1] is “inactive; negative”; the mutagenic call under setting [2] is “inactive; negative”; the mutagenic call under setting [3] is “inactive; negative”; the mutagenic call (Test System: AMES SALMONELLA TYPHIMURIUM, Strain/Indicator: TA100, Metabolic Activation: RAT, LIVER, S-9, AROCLOR 1254, Method: STANDARD PLATE) was “inactive; negative”.
For `ONc1ccccc1-c1ccccc1`, the mutagenic call is, setting by setting: under setting [1], “inactive; negative”; under setting [3], “active; positive”.
For `Cc1cc([N+](=O)[O-])c(C)c2c1[nH]c1ccccc12`, the mutagenic call was “active; positive” under setting [1]; “active; positive” (Test System: AMES SALMONELLA TYPHIMURIUM, Strain/Indicator: TA98, Metabolic Activation: RAT LIVER S-9, AROCLOR 1254, Method: STANDARD PLATE); “inactive; negative” under setting [3]; “inactive; negative” (Test System: AMES SALMONELLA TYPHIMURIUM, Strain/Indicator: TA100, Metabolic Activation: RAT LIVER S-9, AROCLOR 1254, Method: STANDARD PLATE); “inactive; negative” (Test System: AMES SALMONELLA TYPHIMURIUM, Strain/Indicator: TA1537, Metabolic Activation: NONE, Method: STANDARD PLATE); “active; positive” (Test System: AMES SALMONELLA TYPHIMURIUM, Strain/Indicator: TA1537, Metabolic Activation: RAT LIVER S-9, AROCLOR 1254, Method: STANDARD PLATE). For the same compound, the mutagenic call is “active; positive” (Test System: AMES SALMONELLA TYPHIMURIUM, Strain/Indicator: TA1977, Metabolic Activation: NONE, Method: STANDARD PLATE) and “active; positive” (Test System: AMES SALMONELLA TYPHIMURIUM, Strain/Indicator: TA1977, Metabolic Activation: RAT LIVER S-9, AROCLOR 1254, Method: STANDARD PLATE).
With `CCC(O)CN(CC(O)CC)N=O` (centres undefined), the mutagenic call (Test System: CHINESE HAMSTER V-79, Strain/Indicator: V-79/OUABAIN, Metabolic Activation: HAMSTER, HEPATOCYTES, Method: CELL-MEDIATED) is “inactive; negative”.
In the case of `CC(=O)[C@]1(O)Cc2c(O)c3c(c(O)c2[C@@H](O)C1)C(=O)c1c(O)cccc1C3=O`, the mutagenic call is, setting by setting: under setting [1], “active; positive”; under setting [2], “active; positive”; under setting [3], “inactive; negative”; (Test System: AMES SALMONELLA TYPHIMURIUM, Strain/Indicator: TA1538, Metabolic Activation: NONE, Method: STANDARD PLATE) “inactive; negative”.
Consider `O=[N+]([O-])c1ccc2c3c(cccc13)-c1ccccc1-2`, for which the mutagenic call was “active; positive” (Test System: AMES SALMONELLA TYPHIMURIUM, Strain/Indicator: TA97, Metabolic Activation: NONE); “active; positive” (Test System: AMES SALMONELLA TYPHIMURIUM, Strain/Indicator: TA98(1,8-DNP6), Metabolic Activation: NONE); “active; positive” (Test System: AMES SALMONELLA TYPHIMURIUM, Strain/Indicator: TA98(1,8-DNP6), Metabolic Activation: NONE, Method: STANDARD PLATE); “active; positive” (Test System: AMES SALMONELLA TYPHIMURIUM, Strain/Indicator: TA98(NR), Metabolic Activation: NONE); “active; positive” (Test System: AMES SALMONELLA TYPHIMURIUM, Strain/Indicator: TA98(NR), Metabolic Activation: NONE, Method: STANDARD PLATE); “active; positive” (Test System: AMES SALMONELLA TYPHIMURIUM, Strain/Indicator: TA98, Metabolic Activation: NONE). Moreover, the mutagenic call by setting is: under setting [2], “active; positive”; (Test System: AMES SALMONELLA TYPHIMURIUM, Strain/Indicator: TA100(NR), Metabolic Activation: NONE, Method: STANDARD PLATE) “inactive; negative”; (Test System: AMES SALMONELLA TYPHIMURIUM, Strain/Indicator: TA100(TN5-1,8-DNP1012), Metabolic Activation: NONE, Method: STANDARD PLATE) “inactive; negative”; (Test System: AMES SALMONELLA TYPHIMURIUM, Strain/Indicator: TA100, Metabolic Activation: NONE) “active; positive”; under setting [3], “active; positive”; (Test System: AMES SALMONELLA TYPHIMURIUM, Strain/Indicator: TA1535, Metabolic Activation: NONE) “inactive; negative”. Also, the mutagenic call was “active; positive” (Test System: AMES SALMONELLA TYPHIMURIUM, Strain/Indicator: TA1537, Metabolic Activation: NONE); “active; positive” (Test System: AMES SALMONELLA TYPHIMURIUM, Strain/Indicator: TA1538, Metabolic Activation: NONE); “active; positive” (Test System: AMES SALMONELLA TYPHIMURIUM, Strain/Indicator: TA1978, Metabolic Activation: NONE); “active; positive” (Test System: AMES SALMONELLA TYPHIMURIUM, Strain/Indicator: TA7001, Metabolic Activation: NONE, Method: PREINCUBATION); “active; positive” (Test System: AMES SALMONELLA TYPHIMURIUM, Strain/Indicator: TA7002, Metabolic Activation: NONE, Method: PREINCUBATION); “active; positive” (Test System: AMES SALMONELLA TYPHIMURIUM, Strain/Indicator: TA7003, Metabolic Activation: NONE, Method: PREINCUBATION). In addition, the mutagenic call by setting is: (Test System: AMES SALMONELLA TYPHIMURIUM, Strain/Indicator: TA7004, Metabolic Activation: NONE, Method: PREINCUBATION) “active; positive”; (Test System: AMES SALMONELLA TYPHIMURIUM, Strain/Indicator: TA7005, Metabolic Activation: NONE, Method: PREINCUBATION) “active; positive”; (Test System: AMES SALMONELLA TYPHIMURIUM, Strain/Indicator: TA7006, Metabolic Activation: NONE, Method: PREINCUBATION) “active; positive”; (Test System: AMES SALMONELLA TYPHIMURIUM, Strain/Indicator: TM677, Metabolic Activation: RAT, LIVER, S-9, AROCLOR 1254, Method: STANDARD PLATE) “active; positive”.
